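In this assay, cells in 96-well plates receive the compound at five concentrations for 48 hours. Endpoints are linearly interpolated between the surrounding concentrations. GI50 = concentration required for 50% inhibition of growth.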 Activity calls are given as the source filed them. No stated cut-off is given here; in the data, active = GI50 up to about 1.1 µM and inactive = higher.
Legend:
Test in all cases: NCI-60 cell line screen, 48 h
LOX IMVI = test system: LOX IMVI
786-0 = test system: 786-0
HCT-15 = test system: HCT-15
HCC 2998 = test system: HCC 2998
SK-MEL-2 = test system: SK-MEL-2
UO-31 = test system: UO-31
IGROV-1 = test system: IGROV-1
SK-MEL-28 = test system: SK-MEL-28
RXF 393 = test system: RXF 393
SF-295 = test system: SF-295
DU-145 = test system: DU-145
U-251 = test system: U-251
MDA-MB-435 = test system: MDA-MB-435
SNB-19 = test system: SNB-19
A549 = test system: A549
COLO 205 = test system: COLO 205
Malme-3M = test system: Malme-3M
OVCAR-5 = test system: OVCAR-5
OVCAR-8 = test system: OVCAR-8
SNB-75 = test system: SNB-75

SMILES	GI50 (LOX IMVI)	GI50 (786-0)	GI50 (HCT-15) [µM]	GI50 (HCC 2998)	GI50 (SK-MEL-2)	GI50 (UO-31)	GI50 (IGROV-1)	GI50 (SK-MEL-28)	GI50 (RXF 393)	GI50 (SF-295)	GI50 (DU-145)	GI50 (U-251)	GI50 (MDA-MB-435)	GI50 (SNB-19)	GI50 (A549)	GI50 (COLO 205)	GI50 (Malme-3M)	GI50 (OVCAR-5)	GI50 (OVCAR-8)	GI50 (SNB-75)
CC[C@H]1C=CCC[C@@]2(C[C@@H]3CC[C@@H]4[C@H](C(=O)OCCCCCCCCCCCCCCCC(=O)N(CCCNC(C)=O)C[C@H](CCNC(C)=O)OC(C)=O)[C@]5(CCC[C@@H](C)O5)NC(=[N+]34)N2)O1	0.0277 µM (active)	0.109 µM (active)	0.904	0.023 µM (active)	0.0404 µM (active)	1.2 µM (inactive)	0.0583 µM (active)	0.757 µM (active)	0.187 µM (active)	0.391 µM (active)	0.0918 µM (active)	0.0538 µM (active)	0.0432 µM (active)	0.533 µM (active)	0.215 µM (active)	0.0395 µM (active)	0.21 µM (active)	0.0557 µM (active)	0.614 µM (active)	–
COC(COC(=O)N1CCN(C=O)CC1)C1=C(N2CC2)C(=O)C(C)=C(N2CC2)C1=O (stereo not drawn)	0.0664 µM (active)	0.0644 µM (active)	1.73	21.2 µM (inactive)	0.705 µM (active)	0.486 µM (active)	0.271 µM (active)	1.27 µM (inactive)	0.228 µM (active)	1.22 µM (inactive)	0.0472 µM (active)	0.219 µM (active)	0.424 µM (active)	0.437 µM (active)	0.167 µM (active)	0.272 µM (active)	0.336 µM (active)	2.56 µM (inactive)	0.17 µM (active)	–
CC(C)(C)n1c(=O)n(C(=O)C(Cl)(Cl)Cl)n(C(=O)C(Cl)(Cl)Cl)c1=O	> 100 µM (inactive)	> 100 µM (inactive)	> 100	> 100 µM (inactive)	> 100 µM (inactive)	> 100 µM (inactive)	> 100 µM (inactive)	> 100 µM (inactive)	> 100 µM (inactive)	> 100 µM (inactive)	> 100 µM (inactive)	> 100 µM (inactive)	> 100 µM (inactive)	> 100 µM (inactive)	> 100 µM (inactive)	> 100 µM (inactive)	> 100 µM (inactive)	> 100 µM (inactive)	> 100 µM (inactive)	–
CC[C@@H](/C=C\CCC1(C[C@H](O)CCC=C(C)C)OCCO1)O[Si](C(C)C)(C(C)C)C(C)C	20.4 µM (inactive)	17.5 µM (inactive)	20.1	16.4 µM (inactive)	16.3 µM (inactive)	19.2 µM (inactive)	20.9 µM (inactive)	26.7 µM (inactive)	17.3 µM (inactive)	20.2 µM (inactive)	30 µM (inactive)	17.3 µM (inactive)	35 µM (inactive)	18.9 µM (inactive)	33.2 µM (inactive)	19.8 µM (inactive)	–	22 µM (inactive)	19.9 µM (inactive)	29.5 µM (inactive)
O=C(/C=C/c1ccc2c(c1)OCO2)Cc1nc2ncccc2[nH]c1=O	8.53 µM (inactive)	75.3 µM (inactive)	92.7	> 100 µM (inactive)	> 100 µM (inactive)	> 100 µM (inactive)	94.6 µM (inactive)	> 100 µM (inactive)	49.4 µM (inactive)	69.3 µM (inactive)	> 100 µM (inactive)	31.1 µM (inactive)	> 100 µM (inactive)	63.8 µM (inactive)	> 100 µM (inactive)	70.3 µM (inactive)	> 100 µM (inactive)	> 100 µM (inactive)	59.8 µM (inactive)	–
COc1ccc(C2=Nn3c(nc4sc(C)c(C)c4c3=O)SC2)cc1	> 100 µM (inactive)	> 100 µM (inactive)	> 100	> 100 µM (inactive)	–	> 100 µM (inactive)	> 100 µM (inactive)	> 100 µM (inactive)	> 100 µM (inactive)	> 100 µM (inactive)	> 100 µM (inactive)	> 100 µM (inactive)	> 100 µM (inactive)	–	> 100 µM (inactive)	> 100 µM (inactive)	> 100 µM (inactive)	> 100 µM (inactive)	> 100 µM (inactive)	> 100 µM (inactive)
